Consider 5 compounds from patent US20050136491A1, “Method of site specific labeling of proteins and uses therefor” (SmithKline Beecham Corporation, priority 1999, published 2005).

Square brackets hold non-standard residues; d marks the D form. Peptide text beside a SMILES is read from it. * marks the point of attachment. Tyr(3-NO2) = N[C@@H](Cc1ccc(O)c([N+](=O)[O-])c1)C(=O)O; Biotin = O=C1N[C@H]2[C@H](CS[C@H]2CCCCC(=O)*)N1

One assay concerns the target T1, Factor XIIIa (Homo sapiens, UniProt P00488).
T1 construct: purchased Enzyme Research Laboratories
T1 sequence (P00488 39-732 limits assumed): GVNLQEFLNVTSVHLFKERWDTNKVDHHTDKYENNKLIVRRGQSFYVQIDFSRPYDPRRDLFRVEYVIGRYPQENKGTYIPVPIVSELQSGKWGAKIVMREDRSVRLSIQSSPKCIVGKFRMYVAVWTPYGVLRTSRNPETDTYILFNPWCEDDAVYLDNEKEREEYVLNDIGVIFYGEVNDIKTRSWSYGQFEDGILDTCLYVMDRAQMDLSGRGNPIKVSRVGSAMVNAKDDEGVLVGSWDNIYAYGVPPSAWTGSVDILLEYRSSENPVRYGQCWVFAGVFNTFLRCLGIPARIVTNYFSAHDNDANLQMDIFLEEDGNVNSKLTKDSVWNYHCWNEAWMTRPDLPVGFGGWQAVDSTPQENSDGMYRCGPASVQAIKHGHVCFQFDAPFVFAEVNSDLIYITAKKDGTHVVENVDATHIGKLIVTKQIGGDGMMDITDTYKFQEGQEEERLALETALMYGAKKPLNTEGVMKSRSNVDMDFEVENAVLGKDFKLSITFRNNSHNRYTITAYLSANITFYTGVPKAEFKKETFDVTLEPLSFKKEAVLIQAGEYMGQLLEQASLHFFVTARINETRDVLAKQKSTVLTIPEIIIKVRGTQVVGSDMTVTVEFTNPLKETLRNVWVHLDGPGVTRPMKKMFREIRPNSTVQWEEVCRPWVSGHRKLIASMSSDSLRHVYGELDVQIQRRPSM
As to the kind of experiment: Factor XIII(a)-mediated labeling of ACP-Peptide 1 C-terminal fusion (C-tagged ACP). Format: biochemical. To be noted: for incorporation into ACP-Peptide 1 fusion: Mono Q ion exchange, 22 hr. The protocol:
A 270 units/ml reaction of Factor XIII was activated by 42 units/ml immobilized thrombin in Buffer 1:40 mM Tris-HCl, pH 8.3, 0.15 M NaCl. Cadaverine derivatives (rhodamine green and biotin) were used at 0.5 mM for each labeling reaction. The labeling reaction also contained 6 mM of DTT and 5 mM CaCl2. 0.5 mg/ml tagged ACP was used in the labeling reactions, against a 0.5 mg/ml native ACP control sample. Incubations were carried out at room temperature. Aliquots were taken from the mixtures at different time points and 50 mM EDTA was used to stop the labeling reaction (Factor XIII being Ca^2+ dependent). NuPAGE Tris-Glycine gels (4-12%) [Novex] were used to analyze the labeling results. The rhodamine green cadaverine labeling gel was observed under UV translumination, while the biotin cadaverine labeled protein was analyzed by Western blotting/streptavidin-HRP detection. […] No label was incorporated into the native ACP control under the conditions described above.
The ACP-peptide 1 C-terminal fusion was labeled with biotin cadaverine (Molecular Probes) in a reaction mixture of 0.5 mg/ml ACP-Peptide 1 fusion, 1.5 mM biotin-cadaverine and 504 units/ml Factor XIIIa. The efficiency of incorporation was determined by competitive ELISA to be 56%.
Novel biotinylation reagents (i.e. labeling compounds) were tested in an attempt to increase the yield. To this end, two biotinylated dipeptides, Biotin-Trp-Lys-OH and Biotin-NitroTyr-Lys-OH, were evaluated in a reaction mixture of 0.5 mg/ml ACP-Peptide 1 fusion, 1.5 mM biotin-cadaverine and 504 units/ml Factor XIIIa. Incorporation of the Biotin-Trp-Lys-OH dipeptide was shown by Mono Q ion exchange to be >85% (FIG. 2), in comparison to a 55% incorporation of the Biotin-NitroTyr-Lys dipeptide (FIG. 1). […] provides the C-tagged ACP standard. The identity of the modified peak was confirmed by addition of unmodified ACP at the end of the reaction (FIG. 4).

For a further assay, the target named is T2, Factor XIII (Homo sapiens, UniProt P00488).
T2 construct: purchased Enzyme Research Laboratories
T2 sequence (P00488 39-732 limits assumed): T1 sequence (P00488 39-732 limits assumed)
Nature of the assay: Factor XIII-mediated labeling of N-terminal Peptide 1-ACP fusion (N-tagged ACP). Format: biochemical. Particulars: analysed by N-terminal sequencing and mass mapping.

[1] abbreviates: 0.5 mg/ml fusion, 504 units/ml Factor XIIIa.

In the case of `NCCCC[C@H](NC(=O)[C@H](Cc1ccc(O)c([N+](=O)[O-])c1)NC(=O)CCCC[C@@H]1SC[C@@H]2NC(=O)N[C@@H]21)C(=O)O` [Biotin-NitroTyr-Lys, Biotin-NitroTyr-Lys-OH] (Biotin-[Tyr(3-NO2)]-Lys-OH), the “incorporation into ACP-Peptide 1 fusion” value on Factor XIIIa (setting [1]) worked out at 55%. Consider `NCCCC[C@H](NC(=O)[C@H](Cc1c[nH]c2ccccc12)NC(=O)CCCC[C@@H]1SC[C@@H]2NC(=O)N[C@@H]21)C(=O)O` [Biotin-Trp-Lys-OH] (Biotin-Trp-Lys-OH), for which, at Factor XIIIa (setting [1]), the “incorporation into ACP-Peptide 1 fusion” value is recorded as above 85%.

`CN(C)c1cccc2c(S(=O)(=O)NCCCCCN)cccc12` [dansyl cadaverine]: the “labeling efficiency of N-terminal Peptide 1-ACP fusion” value on Factor XIII was “greater than 90%”.

On to biotin cadaverine, for which the “efficiency of incorporation into ACP-Peptide 1 C-terminal fusion” value on Factor XIIIa (competitive ELISA, 0.5 mg/ml fusion, 1.5 mM label, 504 units/ml Factor XIIIa) came out at 56%. As to rhodamine green cadaverine, the “efficiency of labeling of the ACP-Peptide 1 C-terminal fusion” value at Factor XIIIa is listed as “greater than 90%”. The “extent of labeling of C-tagged ACP” value on Factor XIIIa (non-optimized reaction, estimated by high-resolution ion exchange) is reported as “greater than 85%”.
